Experimental data reported in patent publication US12338256B2, “Aza-tetracyclic oxazepine compounds and uses thereof” (Genentech, Inc., priority 2022, dated 2025).

How the values were obtained:
[1] = tested on: HPAC (homozygous mutant KRAS G12D human pancreatic cell line); test: KRAS 3D-Cell Proliferation Assay, HPAC (Example 503); format: cell-based; conditions: Homo sapiens, HPAC, 168 h, HPAC 3D culture, 7 days, CellTiter-Glo 3D; read-out: Prolif HPAC 3D ATP IC50
Method: (§1) Example 503: KRAS 3D-Cell Proliferation Assays. Cellular potencies of compounds are assessed by evaluating inhibition of proliferation in 3D cultures of homozygous mutant KRAS G12D human pancreatic cell lines (AsPC-1 and HPAC) as compared to a KRAS wild type human lung adenocarcinoma cell line (PC-9 and/or H1975). Cells are seeded into 384-well black round-bottom, ultra-low attachment assay plates in 50 uL cell growth medium (RPMI-1640 with 10% fetal bovine serum and 2 mM L-glutamine). After overnight incubation at 37° C. and 5% CO2, compounds solubilized in DMSO are added as dilution series to the wells in a total volume of 150 nL (0.3% DMSO final). The cells are incubated for 7 days at 37° C. and 5% CO2. Cell proliferation is quantitated by addition of 40 uL/well of CellTiter-GloÒ 3D (Promega), and the well contents are mixed 20× at high speed using liquid handling automation workstation (Bravo with 384-well head) and centrifuged at 1500 rpm for 2 minutes to eliminate bubbles. This reagent in combination with mechanical disruption releases the cellular ATP to promote activity in a luciferase-based enzyme/substrate chemiluminescent detection system. After a 30-minute incubation under ambient conditions with shaking and an additional 10 minutes without shaking, the luminescence is read on a plate reader (e.g., EnVision [PerkinElmer]). The results are normalized to percent inhibition based on the following control samples: DMSO (0% inhibition) and 1 μM staurosporine (100% inhibition). The normalized luminescence results are plotted against compound concentration, and the data are fit to a 4-parameter Hill equation to determine the IC50 values.

[2] = tested on: H1975 (KRAS wild type human lung adenocarcinoma cell line); test: KRAS 3D-Cell Proliferation Assay, H1975 (Example 503); format: cell-based; conditions: Homo sapiens, NCI-H1975, 168 h, H1975 3D culture, 7 days, CellTiter-Glo 3D; read-out: Prolif H1975 3D ATP IC50
Method: as §1

SMILES | IC50 [1] | IC50 [2]
Cc1nc(N)c(C)c(-c2nc3c4c(nc(OC[C@@]56CCCN5C[C@H](F)C6)nc4c2F)N2C[C@H]4CC[C@H](N4)[C@H]2[C@H](C)O3)c1C(F)(F)F [Compound 198, 4-((5S,5aS,6S,9R)-1-Fluoro-12-(((2R,7aS)-2-fluorotetrahydro-1H-pyrrolizin-7a(5H)-yl)methoxy)-5-methyl-5a,6,7,8,9,10-hexahydro-5H-4-oxa-3,10a,11,13,14-pentaaza-6,9-methanonaphtho[1,8-ab]heptalen-2-yl)-3,6-dimethyl-5-(trifluoromethyl)pyridin-2-amine] | 0.013 µM | 3.72 µM
Cc1c(F)c(N)c(F)c(-c2nc3c4c(nc(OC[C@@]56CCCN5C[C@H](F)C6)nc4c2F)N2C[C@H]4CC[C@H](N4)[C@H]2[C@H](C)O3)c1Cl [Compound 195, 4-Chloro-2,6-difluoro-3-((5S,5aS,6S,9R)-1-fluoro-12-(((2R,7aS)-2-fluorotetrahydro-1H-pyrrolizin-7a(5H)-yl)methoxy)-5-methyl-5a,6,7,8,9,10-hexahydro-5H-4-oxa-3,10a,11,13,14-pentaaza-6,9-methanonaphtho[1,8-ab]heptalen-2-yl)-5-methylaniline] | 0.0221 µM | 1.34 µM
Cc1c(F)c(N)cc(-c2nc3c4c(nc(OCC5CN(CC(F)F)C5)nc4c2F)N2C[C@H]4CC[C@H](N4)[C@H]2[C@H](C)O3)c1C(F)(F)F [Compound 128, 5-((5S,5aS,6S,9R)-12-((1-(2,2-Difluoroethyl)azetidin-3-yl)methoxy)-1-fluoro-5-methyl-5a,6,7,8,9,10-hexahydro-5H-4-oxa-3,10a,11,13,14-pentaaza-6,9-methanonaphtho[1,8-ab]heptalen-2-yl)-2-fluoro-3-methyl-4-(trifluoromethyl)aniline] | 0.0515 µM | 5.06 µM
Cc1cc(N)c(F)c(-c2nc3c4c(nc(OC[C@@]56CCCN5CC5(CC5(F)F)C6)nc4c2F)N2C[C@H]4CC[C@H](N4)[C@H]2[C@H](C)O3)c1C(F)(F)F (stereo partly drawn) [Compound 227, 3-((5S,5aS,6S,9R)-12-(((7a′S)-2,2-Difluorodihydro-1′H,3′H-spiro[cyclopropane-1,2′-pyrrolizin]-7a′(5′H)-yl)methoxy)-1-fluoro-5-methyl-5a,6,7,8,9,10-hexahydro-5H-4-oxa-3,10a,11,13,14-pentaaza[6,9]methanonaphtho[1,8-ab]heptalene-2-yl)-2-fluoro-5-methyl-4-(trifluoromethyl)aniline] | 0.000516 µM | 0.679 µM
Cc1c(F)c(N)cc(-c2nc3c4c(nc(OCC5CCC6CC(F)CN56)nc4c2F)N2CC4CCC(N4)C2C(C)O3)c1C(F)(F)F (single isomer, unassigned) [152 (isomer 2)] | 0.299 µM | 6.33 µM
C[C@@H]1Oc2nc(-c3c(F)ccc4cc[nH]c(=O)c34)c(F)c3nc(OC[C@@]45CCCN4C[C@H](F)C5)nc(c23)N2C[C@H]3CC[C@H](N3)[C@@H]12 [Compound 196, 7-Fluoro-8-((5S,5aS,6S,9R)-1-fluoro-12-(((2R,7aS)-2-fluorotetrahydro-1H-pyrrolizin-7a(5H)-yl)methoxy)-5-methyl-5a,6,7,8,9,10-hexahydro-5H-4-oxa-3,10a,11,13,14-pentaaza-6,9-methanonaphtho[1,8-ab]heptalen-2-yl)isoquinolin-1(2H)-one] | 20 µM | 20 µM
Cc1c(F)c(N)cc(-c2nc3c4c(nc(OCCCN5C[C@@H]6C[C@H]5CO6)nc4c2F)N2C[C@H]4CC[C@H](N4)[C@H]2[C@H](C)O3)c1C(F)(F)F [Compound 164, 5-((5S,5aS,6S,9R)-12-(3-((1S,4S)-2-oxa-5-azabicyclo[2.2.1]heptan-5-yl)propoxy)-1-fluoro-5-methyl-5a,6,7,8,9,10-hexahydro-5H-4-oxa-3,10a,11,13,14-pentaaza-6,9-methanonaphtho[1,8-ab]heptalen-2-yl)-2-fluoro-3-methyl-4-(trifluoromethyl)aniline] | 0.0438 µM | 7.11 µM
CO[C@H]1CN(CC2(COc3nc4c5c(nc(-c6cc(N)nc(C)c6C(F)(F)F)c(F)c5n3)O[C@@H](C)[C@@H]3[C@@H]5CC[C@H](CN43)N5)CC2)C[C@@H]1F [Compound 291, 4-((5S,5aS,6S,9R)-1-fluoro-12-((1-(((3S,4S)-3-fluoro-4-methoxypyrrolidin-1-yl)methyl)cyclopropyl)methoxy)-5-methyl-5a,6,7,8,9,10-hexahydro-5H-4-oxa-3,10a,11,13,14-pentaaza-6,9-methanonaphtho[1,8-ab]heptalen-2-yl)-6-methyl-5-(trifluoromethyl)pyridin-2-amine] | 0.00409 µM | 12.2 µM
Cc1nc(N)cc(-c2nc3c4c(nc(OCC56CCN5CC(F)(F)C6)nc4c2F)N2C[C@H]4CC[C@H](N4)[C@H]2[C@H](C(F)(F)F)O3)c1C(F)(F)F (single isomer, unassigned) [252 (isomer 2)] | 0.119 µM | 20 µM
Cc1nc(N)cc(-c2nc3c4c(nc(OCC5(CN6CCC(C(F)F)C6)CC5)nc4c2F)N2C[C@H]4CC[C@H](N4)[C@H]2[C@H](C)O3)c1C(F)(F)F (stereo partly drawn) [Compound 276, 4-((5S,5aS,6S,9R)-12-((1-((3-(difluoromethyl)pyrrolidin-1-yl)methyl)cyclopropyl)methoxy)-1-fluoro-5-methyl-5a,6,7,8,9,10-hexahydro-5H-4-oxa-3,10a,11,13,14-pentaaza-6,9-methanonaphtho[1,8-ab]heptalen-2-yl)-6-methyl-5-(trifluoromethyl)pyridin-2-amine] | 0.00182 µM | 1.62 µM
Cc1cc(N)cc(-c2nc3c4c(nc(OC[C@@H]5CC[C@H]6COCCN65)nc4c2F)N2C[C@H]4CC[C@H](N4)[C@H]2[C@H](C)O3)c1CC(F)F [Compound 230, 4-(2,2-Difluoroethyl)-3-((5S,5aS,6S,9R)-1-fluoro-12-(((6S,8aS)-hexahydro-1H-pyrrolo[2,1-c][1,4]oxazin-6-yl)methoxy)-5-methyl-5a,6,7,8,9,10-hexahydro-5H-4-oxa-3,10a,11,13,14-pentaaza-6,9-methanonaphtho[1,8-ab]heptalen-2-yl)-5-methylaniline] | 0.0284 µM | 5.84 µM
Cc1nc(N)cc(-c2nc3c4c(nc(OCC5(CN6CC7(CCCO7)C6)CC5)nc4c2F)N2C[C@H]4CC[C@H](N4)[C@H]2[C@H](C)O3)c1C(F)(F)F [Compound 281, 4-((5S,5aS,6S,9R)-12-((1-((5-oxa-2-azaspiro[3.4]octan-2-yl)methyl)cyclopropyl)methoxy)-1-fluoro-5-methyl-5a,6,7,8,9,10-hexahydro-5H-4-oxa-3,10a,11,13,14-pentaaza[6,9]methanonaphtho[1,8-ab]heptalene-2-yl)-6-methyl-5-(trifluoromethyl)pyridin-2-amine] | 0.0086 µM | 2.43 µM
Cc1c(F)c(N)cc(-c2nc3c4c(nc(OCCCN5CCOCC5)nc4c2F)N2C[C@H]4CC[C@H](N4)[C@H]2[C@H](C)O3)c1C(F)(F)F [Compound 138, 2-Fluoro-5-((5S,5aS,6S,9R)-1-fluoro-5-methyl-12-(3-morpholinopropoxy)-5a,6,7,8,9,10-hexahydro-5H-4-oxa-3,10a,11,13,14-pentaaza-6,9-methanonaphtho[1,8-ab]heptalen-2-yl)-3-methyl-4-(trifluoromethyl)aniline] | 0.0151 µM | 2.55 µM
